Values of other authors in patent US20200268684A1, “COMPOSITION FOR TREATING AND PREVENTING NEUROLOGICAL DISEASES, NEUROINFLAMATION AND ALZHEIMER'S DISEASE” (HSRX GROUP, LLC, priority 2015, published 2020).

Tested on: Aβ1-40 and Aβ1-42 peptides in SweAPP N2a cells
Conditions: 3-30 μg/mL, 12 hours

SMILES: COc1cc(/C=C/C(=O)CC(=O)/C=C/c2ccc(O)c(OC)c2)ccc1O [curcumin]
- reduction of Aβ1-40 and Aβ1-42 peptides secreted: significant inhibition
